Patent publication US4281009A, “Hydantoin derivatives” (Nippon Zoki Pharmaceutical Co., Ltd., priority 1978, dated 1981)

Key:
ddY-strain male mice = test: Effect of prolongation of sleeping time (hexobarbital); format: in vivo; conditions: for change in vivo at 100 mg/kg / change in vivo at 300 mg/kg: Mus musculus, ip; for change in vivo at 100 mg/kg: 100 mg/kg intraperitoneal; for change in vivo at 300 mg/kg: 300 mg/kg intraperitoneal
Procedure: 7. Effect of prolongation of sleeping time:
Groups of mice each comprising 10 ddY-strain male mice were used. Sodium salt of hexobarbital was given intraperitoneally. Thereafter, the period of time in which righting reflex disappeared was measured. The effect was evaluated on the basis of prolongation of time of disappearance of righting reflex by the intraperitoneal administration of the compounds of the present invention as compared with control mice.

SART stress mice = test: Inhibitory effects on increase of heart rate and elongation of QRS-time in SART stress mice; format: in vivo, mice (dd-strain male); conditions: 100 mg/kg/day, 9th day, Average ± S.D.
Procedure: SART stress animals used in the tests described below were raised according to a method of Kita, et al. [Folia Pharmacol. Japan.: 71, 195-210 (1975)].
2. Inhibitory effects on increase of heart rate and elongation of QRS-time in stress animals:
Groups of mice each comprising 11 or 12 dd-strain male mice were divided into three groups in the same manner as above and heart rate and QRS-time were determined on the 9th day after initiation of the tests.

[1] = test system: normal mice and SART stress mice; test: Analgesic effect, tail pressure method (Randall-Selitto's device); format: in vivo, mice (ddY-strain male); conditions: Mus musculus; for change in vivo at 200 mg/kg / change in vivo at 100 mg/kg: ip; for change in vivo at 200 mg/kg: intraperitoneal 200 mg/kg; for change in vivo at 500 mg/kg: po, peroral 500 mg/kg
Procedure: 5.1 Tail pressure method:
Randall-Selitto's device for determining analgesic effect by pressure stimulation was used. […]. The compounds of the present invention or other comparative drugs were given thereto and analgesic effect was determined. The effect was judged by measuring pressure applied 60 minutes after the intraperitoneal administration of the compounds of the present invention. The pressure thus measured was divided by a pressure before the administration. The value thus obtained was compared with that of a control group (to which 10 ml./Kg of 0.5% sodium salt of carboxymethylcellulose or 0.5% Tween 80 was given). When the compounds of the present invention were given perorally and other comparative drugs were given, an average of the pressure at 30, 60, 90 and 120 minutes after the administration was employed for evaluating the effect.

Wistar-strain male rats = test: Antiulcerogenic effect on Shay's ulcer (operative ulcer); format: in vivo; conditions: 10 times
Procedure: 6.2. Antiulcerogenic effect on Shay's ulcer (operative ulcer):
Tests were carried out by using groups of rats each comprising 5-10 Wistar-strain male rats according to Shay method [Shay Harry; Gastroenterology,; 5, 43 (1945)]. Ulcers in the anterior stomach were classified on the following basis:
2. 1-5 small ulcers (diameter of less than 3 mm)
3. 6 or more small ulcers or one big ulcer (diameter of more than 3 mm)
4. two or more big ulcers

[2] = Acute toxicity test (LD50, Litchfield-Wilcoxon), mice; conditions: mouse, in vivo, ip, intraperitoneal
Procedure: (§1) Toxicity tests were carried out by intraperitoneal administration of the compound of the present invention to groups each comprising 10 ICR-strain mice and SD-strain rats. LD50 was calculated by the Litchfield-Wilcoxon method based on the number of death 72 hours after the administration.

dd-strain male mice [3] = test: Antiulcerogenic effect on Takagi's restraint-plus-water-immersing ulcer; format: in vivo
Procedure: 6.1 Antiulcerogenic effect on Takagi's restraint-plus-water-immersing ulcer: Groups each comprising 8-26 dd-strain male mice were used. The tests were carried out according to a method of Takagi, et al. [Chem. Pharm. Bull.; 12, 465 (1964)]. Sum of length of diseased parts in the glandular stomach was measured and it was compared with that of control group. The compounds of the present invention or DPH was given intraperitoneally immediately before the restraint and immersion in water.

[4] = test system: normal rats and SART stress rats; test: Analgesic effect, pain induced by Bradykinin; format: in vivo, rats (SD-strain male)
Procedure: 5.4 Method of measuring a pain induced by Bradykinin:
Groups each comprising 4-8 SD-strain male normal rats and SART stress rats to which SART stress had been applied for 4 days were used. The tests were carried out according to the method of Deffenu et al. [Deffenu, G., Pegrassi, L., & Fumachi. B.; J. Pharm. Pharmacol.; 18, 135 (1966)] and Blane method [Blane, G. F.; J. Pharm. Pharmacol.; 19, 367 (1967)]. The effect judged was shown by ratio of the rats in which the effect was recognized according to the method of Abe, et al. [Abe, Kaneko & Takagi; Folia Pharmacol. Japon.; 67, 9-14 (1971)].

[5] = Acute toxicity test (LD50, Litchfield-Wilcoxon), rats; conditions: rat, in vivo, ip, intraperitoneal
Procedure: as §1

dd-strain male mice [6] = test: Inhibitory effect on Tremorine-induced tremor; format: in vivo; conditions: tremorine 10 mg/Kg
Procedure: 9. Inhibitory effect on Tremorine-induced tremor:
Groups of mice each comprising 10-40 dd-strain male mice were used. Effect of the compounds of the present invention on tremor caused by tremorine was examined. The compounds of the present invention or DPH was given intraperitoneally. 45 minutes thereafter, 10 mg/Kg of tremorine was given intraperitoneally for inducing the tremor.

[7] = test system: normal mice and SART stress mice; test: Analgesic effect, D'Amour-Smith method; format: in vivo, mice (ddY-strain male); conditions: Mus musculus; for responders at 100 mg/kg: ip, intraperitoneal 100 mg/kg; for responders at 500 mg/kg: po, peroral 500 mg/kg
Procedure: 5.3. D'Amour-Smith method:
Groups each comprising 10 ddY-strain male normal mice and SART stress mice to which SART stress had been applied for 4 days were used. The root of the tail of the mouse to which black ink was applied was irradiated with infrared rays for up to 15 seconds. Time required till escape response was observed was measured. The effect was shown by the ratio of the mice in which an average value of the response time at 30, 60, 90 and 120 minutes after the administration of the compounds of the present invention or other comparative drugs was prolonged to at least 2 times as long as the time before the administration.

[8] = test system: normal mice and SART stress mice; test: Analgesic effect, acetic acid writhing method; format: in vivo; conditions: Mus musculus, sc, 100 mg/Kg subcutaneously
Procedure: 5.2. Acetic acid writhing method: 0.1 ml./10 g of isotonic sodium chloride solution containing 0.7% acetic acid was given intraperitoneally to groups of mice each comprising 5 normal mice and 5 SART stress mice to which SART stress had been applied for 8 days. Writhing syndromes number appeared for 15 minutes after the administration was measured. The effect was evaluated by giving 100 mg/Kg of the compounds of the present invention or DPH subcutaneously and comparing the writhing syndromes number of the mice with that of control mice.

[9] = test system: spontaneously hypertensive rats (SHR); test: Antihypertensive effect in spontaneously hypertensive rats; format: in vivo; conditions: 150 mg/Kg intraperitoneal, 60 minutes
Procedure: 8. Antihypertensive effect: Groups of rats each comprising 6-9 spontaneously hypertensive rats (SHR) were used. The compounds of the present invention or DPH was given intraperitoneally. The rate of antihypertension 60 minutes after the administration was determined.

CCC1(c2ccc(O)cc2)NC(=O)NC1=O (stereo not shown) [Compound 24, 5-Ethyl-5-(4-hydroxyphenyl)hydantoin]
Effect of prolongation of sleeping time (ddY-strain male mice; 50 mg/kg intraperitoneal): 42.1% | change in vivo at 100 mg/kg (ddY-strain male mice): 54.4% | change in vivo at 300 mg/kg (ddY-strain male mice): 84.4% | Heart rate (SART stress mice): 729 ± 58 min⁻¹ | QRS-time (SART stress mice): 13.3 ± 0.9 1/1000 sec | change in vivo at 200 mg/kg ([1]; 1 h, SART stress mice, 60 minutes): 31.2% | change in vivo at 200 mg/kg ([1]; 1 h, normal mice, 60 minutes): 20.4% | Antiulcerogenic effect on Shay's ulcer (operative ulcer) (Wistar-strain male rats; 50 mg/kg intraperitoneal): 17.5% | Antiulcerogenic effect on Shay's ulcer (operative ulcer) (Wistar-strain male rats; 100 mg/kg intraperitoneal): 32.2% | LD50 at 72 h ([2]; female): > 5000 mg/kg | LD50 at 72 h ([2]; male): > 5000 mg/kg | inhibition in vivo at 75 mg/kg (dd-strain male mice [3]; Mus musculus, ip, 75 mg/kg intraperitoneal): 11.9% | inhibition in vivo at 125 mg/kg (dd-strain male mice [3]; Mus musculus, ip, 125 mg/kg intraperitoneal): 27.5% | Analgesic effect ([4]; SART stress rats, intraperitoneal 100 mg/kg): 50% | Analgesic effect ([4]; normal rats, intraperitoneal 100 mg/kg): 20% | LD50 at 72 h ([5]; female): > 5000 mg/kg | LD50 at 72 h ([5]; male): > 5000 mg/kg | Inhibitory effect on Tremorine-induced tremor (dd-strain male mice [6]; 150 mg/kg intraperitoneal): 40%

O=C1NC(=O)C(c2ccc(O)cc2)(c2ccc(O)c(Cl)c2)N1 (stereo not shown) [Compound 33, 5-(3-Chloro-4-hydroxyphenyl)-5-(4-hydroxyphenyl)hydantoin]
change in vivo at 100 mg/kg (ddY-strain male mice): 24.2% | change in vivo at 300 mg/kg (ddY-strain male mice): 32.9% | change in vivo at 100 mg/kg ([1]; 1 h, SART stress mice, intraperitoneal 100 mg/kg, 60 minutes): 69.8% | change in vivo at 100 mg/kg ([1]; 1 h, normal mice, intraperitoneal 100 mg/kg, 60 minutes): 29.5% | Antiulcerogenic effect on Shay's ulcer (operative ulcer) (Wistar-strain male rats; 150 mg/kg intraperitoneal): 54.2% | LD50 at 72 h ([2]; female): > 5000 mg/kg | LD50 at 72 h ([2]; male): > 5000 mg/kg | inhibition in vivo at 150 mg/kg (dd-strain male mice [3]; Mus musculus, ip, 150 mg/kg intraperitoneal): 29.8% | LD50 at 72 h ([5]; female): > 5000 mg/kg | LD50 at 72 h ([5]; male): > 5000 mg/kg | Inhibitory effect on Tremorine-induced tremor (dd-strain male mice [6]; 100 mg/kg intraperitoneal): 29% | responders at 100 mg/kg ([7]; SART stress mice): 30% | responders at 100 mg/kg ([7]; normal mice): 20%

O=C1NC(=O)C(c2ccccc2)(c2ccccc2)N1 [DPH, 5,5-diphenylhydantoin, reference compound]
change in vivo at 100 mg/kg ([1]; SART stress mice, comparative drug intraperitoneal 100 mg/kg, average of 30, 60, 90 and 120 minutes): 18.4% | change in vivo at 100 mg/kg ([1]; normal mice, comparative drug intraperitoneal 100 mg/kg, average of 30, 60, 90 and 120 minutes): -33.1% | change in vivo at 500 mg/kg ([1]; SART stress mice, average of 30, 60, 90 and 120 minutes): 17.9% | change in vivo at 500 mg/kg ([1]; normal mice, average of 30, 60, 90 and 120 minutes): 5.9% | inhibition in vivo at 100 mg/kg ([8]; SART stress mice): -6% | inhibition in vivo at 100 mg/kg ([8]; normal mice): -16.3% | Antiulcerogenic effect on Takagi's restraint-plus-water-immersing ulcer (dd-strain male mice [3]; 50 mg/kg intraperitoneal): 7.8% | inhibition in vivo at 100 mg/kg (dd-strain male mice [3]; Mus musculus, ip, 100 mg/kg intraperitoneal): 9% | Analgesic effect ([4]; SART stress rats, peroral 500 mg/kg): 0% | Analgesic effect ([4]; normal rats, peroral 500 mg/kg): 0% | Rate of antihypertension [9]: 6.6% | Inhibitory effect on Tremorine-induced tremor (dd-strain male mice [6]; 50 mg/kg intraperitoneal): 0% | Inhibitory effect on Tremorine-induced tremor (dd-strain male mice [6]; 100 mg/kg intraperitoneal): 0% | responders at 500 mg/kg ([7]; SART stress mice): 0% | responders at 500 mg/kg ([7]; normal mice): 0%
